Earlier results in patent publication US11638718B2, “Treatment of alphavirus-induced inflammation” (priority 2016, dated 2023).

Tested on: alphavirus
Conditions: earlier studies by the group (refs 30, 55-57); cited from earlier work

CN(Cc1cnc2nc(N)nc(N)c2n1)c1ccc(C(=O)N[C@@H](CCC(=O)O)C(=O)O)cc1 [methotrexate]
effect on alphavirus disease: increased the onset of RRV-induced musculoskeletal disease
